# Test results: paper PMC8397297 (ACS Chemical Neuroscience, 2021)
# Columns and labels:
# mGAT1 [1] = biological target: T1, mGAT1 (Mus musculus, UniProt P31648); test: [3H]GABA uptake assay in HEK-293 cells stably expressing mGAT1; format: cell-based; conditions: for IC50: [3H]GABA uptake, read-out: pIC50 ± SEM mGAT1 (converted); for remaining [3H]GABA uptake mGAT1: in the presence of 100 μM inhibitor
# T1 construct: expressed in transfected cells; host or cells: HEK-293
# mGAT2 = biological target: T2, mGAT2 (Mus musculus, UniProt P31651); test: [3H]GABA uptake assay in HEK-293 cells stably expressing mGAT2; format: cell-based; conditions: for IC50: [3H]GABA uptake, read-out: pIC50 ± SEM mGAT2 (converted)
# T2 construct: expressed in transfected cells; host or cells: HEK-293
# T2 sequence (P31651 1-614): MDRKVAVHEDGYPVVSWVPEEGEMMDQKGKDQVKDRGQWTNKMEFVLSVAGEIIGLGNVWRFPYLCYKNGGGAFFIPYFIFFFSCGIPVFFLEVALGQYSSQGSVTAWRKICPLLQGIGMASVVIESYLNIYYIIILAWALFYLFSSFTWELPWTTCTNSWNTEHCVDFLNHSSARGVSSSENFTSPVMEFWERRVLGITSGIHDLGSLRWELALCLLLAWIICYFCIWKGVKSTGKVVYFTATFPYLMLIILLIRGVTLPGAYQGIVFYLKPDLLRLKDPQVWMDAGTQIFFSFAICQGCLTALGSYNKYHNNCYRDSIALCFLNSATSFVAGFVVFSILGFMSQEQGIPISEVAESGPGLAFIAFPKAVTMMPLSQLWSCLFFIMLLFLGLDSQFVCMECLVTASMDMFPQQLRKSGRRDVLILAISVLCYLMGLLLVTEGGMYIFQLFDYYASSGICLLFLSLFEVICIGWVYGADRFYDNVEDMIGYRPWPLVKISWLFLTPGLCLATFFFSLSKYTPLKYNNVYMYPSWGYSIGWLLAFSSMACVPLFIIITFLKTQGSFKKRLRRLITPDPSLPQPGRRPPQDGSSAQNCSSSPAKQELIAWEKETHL
# mGAT3 = biological target: T3, mGAT3 (Mus musculus, UniProt P31649); test: [3H]GABA uptake assay in HEK-293 cells stably expressing mGAT3; format: cell-based; conditions: for IC50: [3H]GABA uptake, read-out: pIC50 ± SEM mGAT3 (converted)
# T3 construct: expressed in transfected cells; host or cells: HEK-293
# T3 sequence (P31649 1-602): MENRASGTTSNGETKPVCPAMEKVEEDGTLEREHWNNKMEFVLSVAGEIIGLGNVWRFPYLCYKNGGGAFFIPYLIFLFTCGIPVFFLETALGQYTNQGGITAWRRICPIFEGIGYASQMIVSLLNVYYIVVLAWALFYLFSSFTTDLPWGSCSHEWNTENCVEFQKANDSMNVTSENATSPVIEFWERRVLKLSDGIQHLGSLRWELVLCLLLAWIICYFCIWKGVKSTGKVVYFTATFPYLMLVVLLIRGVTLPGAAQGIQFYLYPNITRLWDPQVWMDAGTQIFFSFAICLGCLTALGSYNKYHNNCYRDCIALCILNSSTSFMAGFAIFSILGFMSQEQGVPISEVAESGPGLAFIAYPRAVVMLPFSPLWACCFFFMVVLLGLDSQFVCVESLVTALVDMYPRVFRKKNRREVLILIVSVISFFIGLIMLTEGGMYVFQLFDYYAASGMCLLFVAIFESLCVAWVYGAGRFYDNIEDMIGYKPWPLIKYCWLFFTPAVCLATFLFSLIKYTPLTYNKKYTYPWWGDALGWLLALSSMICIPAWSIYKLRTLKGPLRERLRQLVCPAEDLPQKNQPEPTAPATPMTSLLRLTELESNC
# mGAT4 = biological target: T4, mGAT4 (Mus musculus, UniProt P31650); test: [3H]GABA uptake assay in HEK-293 cells stably expressing mGAT4; format: cell-based; conditions: for IC50: [3H]GABA uptake, read-out: pIC50 ± SEM mGAT4 (converted)
# T4 construct: expressed in transfected cells; host or cells: HEK-293
# T4 sequence (P31650 1-627): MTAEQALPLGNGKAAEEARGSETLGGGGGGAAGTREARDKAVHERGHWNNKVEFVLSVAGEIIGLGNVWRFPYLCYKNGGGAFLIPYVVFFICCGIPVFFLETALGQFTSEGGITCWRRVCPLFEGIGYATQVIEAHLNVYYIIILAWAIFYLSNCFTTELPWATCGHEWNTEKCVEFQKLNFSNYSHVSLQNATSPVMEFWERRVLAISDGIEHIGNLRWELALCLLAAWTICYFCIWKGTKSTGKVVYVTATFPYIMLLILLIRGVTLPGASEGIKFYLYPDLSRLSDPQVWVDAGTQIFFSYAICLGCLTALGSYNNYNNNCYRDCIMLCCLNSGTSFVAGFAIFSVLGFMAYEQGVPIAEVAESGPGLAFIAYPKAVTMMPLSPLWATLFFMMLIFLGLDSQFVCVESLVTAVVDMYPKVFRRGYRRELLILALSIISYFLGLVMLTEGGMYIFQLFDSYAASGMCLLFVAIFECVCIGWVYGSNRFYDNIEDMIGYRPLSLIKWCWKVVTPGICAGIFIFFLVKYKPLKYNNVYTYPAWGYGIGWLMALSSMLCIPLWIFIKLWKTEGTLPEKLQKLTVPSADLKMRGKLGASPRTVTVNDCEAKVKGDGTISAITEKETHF
# mGAT1 [2] = biological target: T1, mGAT1; test: competitive MS binding assay with NO711 as unlabeled marker (LC-ESI-MS/MS); conditions: for remaining NO711 binding mGAT1: in the presence of 100 μM inhibitor
# Method: Specific binding affinity toward mGAT1 was determined via a competitive mass spectrometry (MS) binding assay quantified by liquid chromatography–electrospray ionization tandem mass spectrometry (LC–ESI-MS/MS) with NO711 as an unlabeled marker.[50]
# MS binding assays for mGAT1 were performed as described earlier.[50] Inhibition of mGAT1 binding by the synthesized compounds was determined in MS binding assays at a screening concentration of 100 μM and analyzed by LC–ESI-MS/MS.
# [3] = in the presence of 100 μM inhibitor
Structure (SMILES),IC50 (mGAT1 [1]) [µM],IC50 (mGAT2) [µM],IC50 (mGAT3) [µM],IC50 (mGAT4) [µM],remaining NO711 binding mGAT1 (mGAT1 [2]),remaining [3H]GABA uptake mGAT1 (mGAT1 [1]),remaining [3H]GABA uptake mGAT2 (mGAT2; [3]),remaining [3H]GABA uptake mGAT3 (mGAT3; [3]),remaining [3H]GABA uptake mGAT4 (mGAT4; [3]),"Ki (mGAT1 [2]; MS binding assay, read-out: pKi ± SEM mGAT1 (converted)) [µM]"
"CC(O)CC(C(=O)NCc1ccccc1)N1CCC(=C2c3ccccc3CCc3ccccc32)CC1 (centres unmarked) [2RS,4SR-43a, N-Benzyl-2-(4-(10,11-dihydro-5H-dibenzo[a,d][7]annulen-5-ylidene)piperidin-1-yl)-4-hydroxypentanamide]",19.5,58.9,28.2,15.8,100 μM: 73%,–,–,–,–,–
"CC(O)CC(C(=O)NCc1ccc(F)cc1)N1CCC(=C2c3ccccc3CCc3ccccc32)CC1 (centres unmarked) [2RS,4SR-43b, 2-(4-(10,11-Dihydro-5H-dibenzo[a,d][7]annulen-5-ylidene)piperidin-1-yl)-N-(4-fluorobenzyl)-4-hydroxypentanamide]",–,–,–,–,100 μM: 102%,100 μM: 54%,100 μM: 80%,100 μM: 87%,100 μM: 62%,–
"CC(O)CC(C(=O)NCc1ccccc1)N(C)CCON=C(c1ccccc1)c1ccccc1 (centres unmarked) [2RS,4SR-45, N-Benzyl-2-[(2-{[(diphenylmethylidene)amino]oxy}ethyl)(methyl)amino]-4-hydroxypentanamide]",57.5,31.6,18.2,39.8,100 μM: 86%,–,–,–,–,–
"CN(CCON=C(c1ccccc1)c1ccccc1)C(CCO)C(=O)NCc1ccccc1 (centres unmarked) [Compound 47a, N-Benzyl-2-[(2-{[(diphenylmethylidene)amino]oxy}ethyl)(methyl)amino]-4-hydroxybutanamide]",16.6,36.3,18.2,14.8,100 μM: 87%,–,–,–,–,–
"CN(CCON=C(c1ccccc1)c1ccccc1)C(CCO)C(=O)NCc1ccccc1Cl (centres unmarked) [Compound 47b, N-[(2-Chlorophenyl)methyl]-2-[(2-{[(diphenylmethylidene)amino]oxy}ethyl)(methyl)amino]-4-hydroxybutanamide]",31.6,13.8,9.12,18.6,100 μM: 86%,–,–,–,–,–
"CN(CCON=C(c1ccccc1)c1ccccc1)C(CCO)C(=O)NCc1ccc(Cl)c(Cl)c1 (centres unmarked) [Compound 47c, N-[(3,4-Dichlorophenyl)methyl]-2-[(2-{[(diphenylmethylidene)amino]oxy}ethyl)(methyl)amino]-4-hydroxybutanamide]",21.9,10.2,11,7.08,100 μM: 82%,–,–,–,–,–
"CN(CCON=C(c1ccccc1)c1ccccc1)C(CCN)C(=O)NCc1ccc(Cl)c(Cl)c1 (centres unmarked) [Compound 50b, 4-Amino-N-[(3,4-dichlorophenyl)methyl]-2-[(2-{[(diphenylmethylidene)amino]oxy}ethyl)(methyl)amino]butanamide]",12.3,4.9,4.79,4.9,–,–,–,–,–,33.1
"CC(=O)NCCC(C(=O)NCc1ccccc1Cl)N(C)CCON=C(c1ccccc1)c1ccccc1 (centres unmarked) [Compound 51a, N-[(2-Chlorophenyl)methyl]-2-[(2-{[(diphenylmethylidene)amino]oxy}ethyl)(methyl)amino]-4-acetamidobutanamide]",18.2,13.2,9.33,12.6,100 μM: 74%,–,–,–,–,–
"CC(=O)NCCC(C(=O)NCc1ccc(Cl)c(Cl)c1)N(C)CCON=C(c1ccccc1)c1ccccc1 (centres unmarked) [Compound 51b, N-[(3,4-Dichlorophenyl)methyl]-2-[(2-{[(diphenylmethylidene)amino]oxy}ethyl)(methyl)amino]-4-acetamidobutanamide]",11.7,12,6.76,11.2,100 μM: 72%,–,–,–,–,–
"Cc1ccsc1C(=C1CCN(C(CO)C(=O)NCc2ccccc2)CC1)c1sccc1C (centres unmarked) [Compound 54a, N-Benzyl-2-{4-[bis(3-methylthiophen-2-yl)methylidene]piperidin-1-yl}-3-hydroxypropanamide]",15.1,16.6,16.2,44.7,100 μM: 86%,–,–,–,–,–

# Next, values leading:
IC50 (mGAT1 [1]) [µM],IC50 (mGAT2) [µM],IC50 (mGAT3) [µM],IC50 (mGAT4) [µM],remaining NO711 binding mGAT1 (mGAT1 [2]),remaining [3H]GABA uptake mGAT1 (mGAT1 [1]),remaining [3H]GABA uptake mGAT2 (mGAT2; [3]),remaining [3H]GABA uptake mGAT3 (mGAT3; [3]),remaining [3H]GABA uptake mGAT4 (mGAT4; [3]),"Ki (mGAT1 [2]; MS binding assay, read-out: pKi ± SEM mGAT1 (converted)) [µM]",Structure (SMILES)
–,43.7,63.1,95.5,100 μM: 100%,100 μM: 53%,–,–,–,–,"Cc1ccsc1C(=C1CCN(C(CO)C(=O)NCc2ccccc2Cl)CC1)c1sccc1C (centres unmarked) [Compound 54b, 2-{4-[Bis(3-methylthiophen-2-yl)methylidene]piperidin-1-yl}-N-[(2-chlorophenyl)methyl]-3-hydroxypropanamide]"
17,13.8,16.2,28.8,100 μM: 96%,–,–,–,–,–,"Cc1ccsc1C(=C1CCN(C(CO)C(=O)NCc2ccc(F)cc2)CC1)c1sccc1C (centres unmarked) [Compound 54c, 2-{4-[Bis(3-methylthiophen-2-yl)methylidene]piperidin-1-yl}-N-[(4-fluorophenyl)methyl]-3-hydroxypropanamide]"
17.4,26.3,15.8,8.32,100 μM: 83%,–,–,–,–,–,"CN(CCC=C1c2ccccc2C=Cc2ccccc21)C(CO)C(=O)NCc1ccccc1 (centres unmarked) [Compound 55a, 2-((3-(5H-Dibenzo[a,d][7]annulen-5-ylidene)propyl)(methyl)amino)-N-benzyl-3-hydroxypropanamide]"
25.7,15.8,10.7,9.55,100 μM: 65%,–,–,–,–,–,"CN(CCC=C1c2ccccc2C=Cc2ccccc21)C(CO)C(=O)NCc1ccccc1Cl (centres unmarked) [Compound 55b, 2-((3-(5H-Dibenzo[a,d][7]annulen-5-ylidene)propyl)(methyl)amino)-N-(2-chlorobenzyl)-3-hydroxypropanamide]"
28.8,60.3,15.1,16.6,100 μM: 49%,–,–,–,–,–,"CN(CCC=C1c2ccccc2C=Cc2ccccc21)C(CO)C(=O)NCc1ccc(Cl)cc1 (centres unmarked) [Compound 55c, 2-((3-(5H-Dibenzo[a,d][7]annulen-5-ylidene)propyl)(methyl)amino)-N-(4-chlorobenzyl)-3-hydroxypropanamide]"
26.3,20.4,10.5,17,100 μM: 90%,–,–,–,–,–,CN(CCC=C1c2ccccc2C=Cc2ccccc21)C(CO)C(=O)NCc1ccc(F)cc1 (centres unmarked) [Compound 55d]
